Test results taken from ChEMBL document CHEMBL1150390, “Identification of halosalicylamide derivatives as a novel class of allosteric inhibitors of HCV NS5B polymerase” (Bioorg Med Chem Lett, 2008).

test system: Hepatitis C virus; test: Inhibition of HCV 1b NS5B polymerase; parameters: species or system Hepatitis C virus subtype 1b

Row | IC50 | SMILES
1 | 135 µM | CN(C(=O)c1cc(Br)cc(Br)c1O)c1ccc(Cl)cc1
2 | 30 µM | Nc1ccc(NC(=O)c2cc(I)cc(I)c2O)cc1
3 | 46 µM | O=C(Nc1ccccc1)c1cc(I)cc(I)c1O
4 | 8.6 µM | O=C(Nc1ccc(Cl)cc1O)c1cc(I)cc(I)c1O
5 | > 200 µM | CC(=O)Oc1c(I)cc(I)cc1C(=O)Nc1ccc(Cl)c(Cl)c1
6 | 46 µM | COc1ccc(NC(=O)c2cc(I)cc(I)c2O)cc1
7 | 4.7 µM | O=C(Nc1ccc(Cl)c(Cl)c1)c1cc(I)cc(I)c1O
8 | 98 µM | Nc1c(Br)cc(Br)cc1C(=O)Nc1ccc(Br)cc1
9 | > 200 µM | CN(C(=O)c1cc(I)cc(I)c1O)c1ccc(Cl)c(Cl)c1
10 | 108 µM | Cc1cc(NC(=O)c2cc(Cl)cc(Cl)c2N)ccc1Cl
11 | 37 µM | Cc1ccc(NC(=O)c2cc(I)cc(I)c2O)cc1
12 | 10 µM | O=C(Nc1ccc(Br)cc1)c1cc(I)cc(I)c1O
13 | 102 µM | Nc1c(Cl)cc(Cl)cc1C(=O)Nc1ccc(Cl)c(Cl)c1
14 | 54 µM | O=C(Nc1ccc(O)cc1)c1cc(I)cc(I)c1O
15 | 9 µM | Cc1cc(NC(=O)c2cc(Cl)cc(Cl)c2O)ccc1Cl
16 | > 200 µM | COc1c(Cl)cc(Cl)cc1C(=O)Nc1ccc(Br)cc1
17 | 6.9 µM | O=C(Nc1cccc(Br)c1)c1cc(Br)cc(Br)c1O
18 | 5.6 µM | O=C(Nc1ccc(Oc2ccccc2)cc1)c1cc(I)cc(I)c1O
19 | 8.8 µM | Oc1c(I)cc(I)cc1/C=N/c1ccc(Cl)cc1Cl
20 | 33 µM | O=C(Nc1ccc(F)cc1)c1cc(I)cc(I)c1O
21 | 8.6 µM | O=C(Nc1ccc(Cl)c(Cl)c1)c1cc(Cl)cc(Cl)c1O [3,3',4',5-TETRACHLOROSALICYLANILIDE]
22 | 131 µM | Nc1c(Br)cc(Br)cc1C(=O)Nc1cccc(Br)c1
23 | 1.9 µM | O=C(Nc1ccc(Nc2ccccc2)cc1)c1cc(I)cc(I)c1O
24 | > 200 µM | COc1cc(Br)ccc1NC(=O)c1cc(Cl)cc(Cl)c1OC
25 | 11 µM | O=C(Nc1ccc(Cl)cc1)c1cc(I)cc(I)c1O

Row | SMILES | IC50
26 | O=C(Nc1ccc(Br)cc1)c1cc(Br)cc(Br)c1O [TRIBROMSALAN] | 6.7 µM

target: Genome polyprotein (Hepatitis C virus genotype 1b (isolate BK) (HCV), UniProt P26663); test: Inhibition of HCV BK NS5B polymerase
Sequence (P26663 2420-3010 limits assumed): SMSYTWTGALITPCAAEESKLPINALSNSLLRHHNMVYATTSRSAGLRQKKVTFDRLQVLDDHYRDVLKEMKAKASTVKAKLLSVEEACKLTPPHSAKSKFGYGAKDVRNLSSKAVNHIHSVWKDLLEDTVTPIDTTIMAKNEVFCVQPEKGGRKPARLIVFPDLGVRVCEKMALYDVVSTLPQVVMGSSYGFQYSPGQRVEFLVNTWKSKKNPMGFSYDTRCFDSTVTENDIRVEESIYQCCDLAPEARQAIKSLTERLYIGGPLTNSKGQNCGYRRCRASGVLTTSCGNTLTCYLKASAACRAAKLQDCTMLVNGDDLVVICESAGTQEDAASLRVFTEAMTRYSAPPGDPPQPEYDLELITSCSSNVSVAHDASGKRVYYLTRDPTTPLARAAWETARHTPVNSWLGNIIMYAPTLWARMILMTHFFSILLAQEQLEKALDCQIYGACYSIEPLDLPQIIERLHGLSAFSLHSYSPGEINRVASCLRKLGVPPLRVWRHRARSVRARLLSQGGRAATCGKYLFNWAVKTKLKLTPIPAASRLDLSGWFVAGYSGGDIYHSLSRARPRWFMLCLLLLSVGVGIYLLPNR

Row | IC50 | SMILES
27 | 8.6 µM | O=C(Nc1ccc(Cl)c(Cl)c1)c1cc(I)cc(I)c1O

target: not listed separately; test: Inhibition of HCV 2a NS5B polymerase; parameters: species or system Hepatitis C virus subtype 2a

Row | IC50 | SMILES
28 | 16.2 µM | O=C(Nc1ccc(Cl)c(Cl)c1)c1cc(I)cc(I)c1O

target: not listed separately; test: Inhibition of HCV 2b NS5B polymerase; parameters: species or system Hepatitis C virus subtype 2b

Row | IC50 | SMILES
29 | 17.3 µM | O=C(Nc1ccc(Cl)c(Cl)c1)c1cc(I)cc(I)c1O

target: not listed separately; test: Inhibition of HCV 3a NS5B polymerase; parameters: species or system Hepatitis C virus subtype 3a

Row | IC50 | SMILES
30 | 14.3 µM | O=C(Nc1ccc(Cl)c(Cl)c1)c1cc(I)cc(I)c1O

target: not listed separately; test: Inhibition of HCV 1a NS5B polymerase; parameters: species or system Hepatitis C virus subtype 1a

Row | IC50 | SMILES
31 | 5.7 µM | O=C(Nc1ccc(Cl)c(Cl)c1)c1cc(I)cc(I)c1O
